Where “and” joins values, the source holds several entries; their conditions need not be identical. Equal values may be shown once. Read-outs that look alike come from different tables or passages of the source.
Key:
CYP3A4 [1] = target: T1, CYP3A4 (Homo sapiens, UniProt P08684); test: Vivid CYP3A4 Red Screening Kit fluorimetric inhibition assay (BOMR substrate); assay type: biochemical; conditions: human
T1 construct: purchased ThermoFisher Scientific Cat. no; 2856
Method: (§1) Flavone, galangin, resokaempferol, myricetin, and gossypetin were purchased from Indofine Chemical Company, Inc. (Hillsborough, NJ, USA). Kaempferol and scutellarein were obtained from Extrasynthese (Genay, France). […] Fisetin was obtained from Biosynth (Staad, Switzerland). […] Dimethyl sulfoxide (DMSO) was obtained from VWR International (Radnor, PA, USA), and acetonitrile was obtained from Merck KGaA (Darmstadt, Germany). The effect on CYP3A4 catalytic performance was evaluated using the Vivid® CYP3A4 Screening Kit (ThermoFischer Scientific, Waltham, MA, USA), following the indications of the manufacturer. This kit assesses how tested compounds affect the rate of fluorescence increase caused by the breakdown of a resorufin-blocked dye substrate by the human CYP3A4 enzyme. The enzyme promoted the cleavage of substrate at two different bonds, both generating a red highly fluorescent dye, in order to minimize spectral interferences caused by other compounds in the reaction medium. […] This setup helped to further circumvent interference from highly fluorescent compounds like NADPH, which are excited at UV wavelengths. […] The last enzyme and its substrate work as NADPH regenerating system since it catalyzes its formation through NADP^+, added subsequently. […] The fluorescence measurements were performed every 30 s for 30 min in a microplate reader with plate shaking and temperature control, 29 °C (Cytation 5, BIO-TEK, Winooski, VT, USA). The percentage of inhibition was calculated based on the reaction initial rates measured from the constant slope values of the fluorescence–time charts. […] The statistical analysis comprised both comparisons by the Student’s t-test for mean % inhibition and one-way analysis of variance (ANOVA) for the comparison between concentrations on the IC50. […] Differences were significant for p < 0.05.

[2] = target: T2, recombinant human CYP3A4 (Baculosomes) (Homo sapiens, UniProt P08684); test: as above; assay type: biochemical; conditions: for Effect on CYP3A4 activity (in words): up to 50 µmol/L; for IC50: Baculosomes, fluorescence, positive control KTZ, mean ± SEM
T2 construct: purchased ThermoFisher Scientific Cat. no; 2856
T2 sequence (P08684 whole entry): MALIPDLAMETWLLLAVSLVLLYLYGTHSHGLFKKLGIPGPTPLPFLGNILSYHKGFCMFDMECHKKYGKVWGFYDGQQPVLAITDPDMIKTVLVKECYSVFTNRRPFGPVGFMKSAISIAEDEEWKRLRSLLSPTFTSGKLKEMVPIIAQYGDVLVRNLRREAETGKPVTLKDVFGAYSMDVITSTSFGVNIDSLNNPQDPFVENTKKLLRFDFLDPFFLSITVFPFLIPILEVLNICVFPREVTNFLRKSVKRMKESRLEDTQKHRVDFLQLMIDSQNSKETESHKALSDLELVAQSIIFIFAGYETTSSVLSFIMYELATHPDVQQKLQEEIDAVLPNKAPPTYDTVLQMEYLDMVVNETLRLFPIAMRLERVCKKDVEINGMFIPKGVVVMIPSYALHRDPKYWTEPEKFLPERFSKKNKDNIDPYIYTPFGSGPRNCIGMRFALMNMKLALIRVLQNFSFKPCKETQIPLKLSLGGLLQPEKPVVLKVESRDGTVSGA
Method: as §1

CYP3A4 [3] = conditions: HLM, cited from earlier work
CYP3A4 [4] = system: CYP3A4; design: method as in PMID 31756459; conditions: cited from earlier work
CYP3A4 [5] = conditions: RLM, HPLC, cited from earlier work
CYP3A4 [6] = conditions: BCS, fluorescence, cited from earlier work
CYP3A4 [7] = conditions: substrate BOMCC, enzyme not given, positive control ERYT, fluorescence; cited from earlier work
[8] = recombinant human CYP3A4 Baculosomes, pH 8, probe Vivid BOMR substrate, 50 µmol/L compound, BOMR substrate, mean ± SEM, negative = activation, read-out: CYP3A4 Inhibition (%) (50 µmol/L)
[9] = substrate TST, positive control KTZ, HPLC-UV
[10] = recombinant enzyme, pH 8, CYP3A4 Inhibition (%) (50 µmol/L)

T1 sequence (P08684 whole entry): as above

**Q.** Which inhibition at 30 min, 50 µmol/L (CYP3A4 [1]; [8]) does the source give for `O=c1c(O)c(-c2ccccc2)oc2cc(O)cc(O)c12` [Galangin] here?
**A.** Its inhibition at 30 min, 50 µmol/L is 4 ± 9%.

**Q.** Which inhibition at 30 min, 50 µmol/L (CYP3A4 [1]; [8]) does the source give for `O=C1C[C@@H](c2ccc(O)cc2)Oc2cc(O)cc(O)c21` [Naringenin] here?
**A.** Its inhibition at 30 min, 50 µmol/L is -11 ± 5%.

**Q.** What about the “Effect on CYP3A4 activity (in words)” value [2] of the same molecule?
**A.** Its value is “no inhibitory effect was noticed”.

**Q.** With `O=c1c(O)c(-c2ccc(O)cc2)oc2c(O)c(O)cc(O)c12` [Herbacetin] as the molecule, how does the IC50 ([2]; BOMR substrate, read-out: IC50) read?
**A.** The IC50 was 32 µM and 31.5 µM.

**Q.** What about the IC50 (CYP3A4 [3]; UPLC-MS/MS) of the same molecule?
**A.** Its IC50 is < 10 µM.

**Q.** Which inhibition at 30 min, 50 µmol/L (CYP3A4 [1]; [8]) does the source give for `O=c1cc(-c2ccccc2)oc2ccccc12` [Flavone] here?
**A.** The inhibition at 30 min, 50 µmol/L was -179 ± 73%.

**Q.** And the “Effect on CYP3A4 activity (in words)” value [2]?
**A.** The value was “could act as an activator of the enzyme”.

**Q.** And the “Activation of CYP3A4” value (CYP3A4 [4])?
**A.** Its value is 94.65 ± 7.10%.

**Q.** With `O=c1c(O)c(-c2ccc(O)cc2O)oc2cc(O)cc(O)c12` [Morin] as the molecule, how does the inhibition at 30 min, 50 µmol/L (CYP3A4 [1]; [8]) read?
**A.** The inhibition at 30 min, 50 µmol/L was 38 ± 11%.

**Q.** Which results are given for `O=c1cc(-c2ccccc2)oc2cc(O)c(O)c(O)c12` [Baicalein]?
**A.** IC50 ([2]; IC50, BOMR substrate): 15 ± 5 µM; IC50 (CYP3A4 [3]; different substrates, fluorescence): 7.56 to 26.4 µM; IC50 (CYP3A4 [3]; [9]): 9.6 ± 1.18 µM; IC50 (CYP3A4 [5]; substrate TST): 12 µM; IC50 (CYP3A4 [6]; substrate BFC, positive control KTZ): 9.2 µM

**Q.** With `O=c1c(O)c(-c2cc(O)c(O)c(O)c2)oc2cc(O)cc(O)c12` [Myricetin] as the molecule, how does the inhibition at 30 min, 50 µmol/L (CYP3A4 [1]; [10]) read?
**A.** The inhibition at 30 min, 50 µmol/L was 32 ± 12%.

**Q.** For `O=c1cc(-c2ccc(O)c(O)c2)oc2cc(O)cc(O)c12` [Luteolin], which inhibition at 30 min, 50 µmol/L (CYP3A4 [1]; [8]) is on record?
**A.** The inhibition at 30 min, 50 µmol/L was ≥ 50%.

**Q.** What about the IC50 ([2]; BOMR substrate, read-out: IC50) of the same molecule?
**A.** Its IC50 is 31 µM and 31.2 µM.

**Q.** What about the IC50 (CYP3A4 [3]; [9]) of the same molecule?
**A.** Its IC50 is 4.62 ± 1.26 µM.

**Q.** And the IC50 (CYP3A4 [3]; substrate TST, positive control KTZ, RP-HPLC)?
**A.** The IC50 was 6.8 µM.

**Q.** What about the IC50 (CYP3A4 [7]) of the same molecule?
**A.** The IC50 was 57.1 ± 16.1 µM.

**Q.** With `O=c1c(O)c(-c2ccc(O)cc2)oc2cc(O)cc(O)c12` [Kaempferol] as the molecule, how does the inhibition at 30 min, 50 µmol/L (CYP3A4 [1]; [8]) read?
**A.** Its inhibition at 30 min, 50 µmol/L is 24 ± 8%.

**Q.** Which inhibition at 30 min, 50 µmol/L (CYP3A4 [1]; [10]) does the source give for `O=c1cc(-c2ccc(O)cc2)oc2cc(O)cc(O)c12` [Apigenin] here?
**A.** Its inhibition at 30 min, 50 µmol/L is 23 ± 8%.

**Q.** With `O=c1cc(-c2ccc(O)cc2)oc2cc(O)c(O)c(O)c12` [Scutellarein] as the molecule, how does the IC50 ([2]; BOMR substrate, read-out: IC50) read?
**A.** The IC50 was 19 µM and 19.1 µM.

**Q.** Which inhibition at 30 min, 50 µmol/L (CYP3A4 [1]; [8]) does the source give for `O=c1c(O)c(-c2ccc(O)cc2)oc2cc(O)ccc12` [Resokaempferol] here?
**A.** Its inhibition at 30 min, 50 µmol/L is 38 ± 7%.

**Q.** For `O=c1cc(-c2ccccc2)oc2cc(O)cc(O)c12` [Chrysin], which inhibition at 30 min, 50 µmol/L (CYP3A4 [1]; [10]) is on record?
**A.** Its inhibition at 30 min, 50 µmol/L is 28 ± 17%.

**Q.** For `O=c1c(O)c(-c2ccc(O)c(O)c2)oc2c(O)c(O)cc(O)c12` [Gossypetin], which inhibition at 30 min, 50 µmol/L (CYP3A4 [1]; [10]) is on record?
**A.** Its inhibition at 30 min, 50 µmol/L is ≥ 50%.

**Q.** And the IC50 ([2]; IC50, BOMR substrate)?
**A.** The IC50 was 40 µM and 40.1 µM.

**Q.** What does the source list for `O=c1c(O)c(-c2ccc(O)c(O)c2)oc2cc(O)cc(O)c12` [Quercetin]?
**A.** inhibition at 30 min, 50 µmol/L (CYP3A4 [1]; [8]): ≥ 50%; IC50 (CYP3A4 [5]; substrate RPG, positive control KTZ): […]; IC50 (CYP3A4 [6]; substrate BOMCC, positive control Erythro): […]

**Q.** With `O=c1c(O)c(-c2ccc(O)c(O)c2)oc2cc(O)ccc12` [Fisetin] as the molecule, how does the inhibition at 30 min, 50 µmol/L (CYP3A4 [1]; [8]) read?
**A.** The inhibition at 30 min, 50 µmol/L was 30 ± 13%.

Source: article PMC11940229, “How Plant Polyhydroxy Flavonoids Can Hinder the Metabolism of Cytochrome 3A4” (Biomedicines, 2025)
